The nature of test [1]: Inhibition of ENO1 in wild-type human LN319 cells incubated for 5 days by crystal violet staining based spectrophotometry.
A short description of test [2]: Inhibition of ENO1 in overexpressed human D423 cells incubated for 5 days by crystal violet staining based spectrophotometry.
The nature of test [3]: Inhibition of ENO1 in wild-type human LN319 cells incubated for 5 days in presence of 21 % oxygen by crystal violet staining based spectrophotometry.
Test [4] is described as follows: Inhibition of ENO1 in overexpressed human D423 cells incubated for 5 days in presence of 1 % oxygen by crystal violet staining based spectrophotometry.
Test [5] in a line: Inhibition of ENO1 in overexpressed human D423 cells incubated for 5 days in presence of 21 % oxygen by crystal violet staining based spectrophotometry.
Test [6] can be described thus: Inhibition of ENO1 in wild-type human LN319 cells incubated for 5 days in presence of 1 % oxygen by crystal violet staining based spectrophotometry.

Some results are limits rather than exact numbers.

The term IC50 denotes the concentration needed to halve the response being measured.

`O=C1C(P(=O)(O)O)CCCN1O` (configuration not stated): the IC50 in test [1] and in test [2] was more than 100000 nM each time.

With `CC(=O)ON1CCCC(P(=O)(NCc2ccccc2)OCc2ccc([N+](=O)[O-])o2)C1=O` (configuration not stated), the results for the IC50 in test [3], in test [4] and in test [5] were 21100 nM, 5760 nM and 25900 nM, respectively.

Regarding `CC(C)(C)C(=O)OCOP(=O)(OCOC(=O)C(C)(C)C)C1CCCN(O)C1=O` (configuration not stated), the IC50 was found to be 2150 nM in test [1]; 2410 nM in test [3]; 2810 nM in test [4]; 1810 nM in test [6]; 720 nM in test [5]; 604 nM in test [2].

As for `Cn1c(COP(=O)(NCCBr)NCCBr)cnc1[N+](=O)[O-]` [Evofosfamide], the IC50 is 4840 nM in test [3], 301 nM in test [4], 897 nM in test [6] and 2550 nM in test [5].

For the compound `CC(C)(C)C(=O)OCOP(=O)(NCc1ccccc1)C1CCCN(O)C1=O` (configuration not stated), the IC50 in test [1] turned out to be 4020 nM; in test [2], 3940 nM.
